Test results: patent publication EP1330254B1, “TREATMENT OF CANCERS BY APLIDINE IN CONJUNCTION WITH CARNITINE OR ACETYLCARNITINE” (priority 2000, dated 2002)
Read-outs that look alike come from different tables or passages of the source. Starred links: 1 amine or outer side, 2 acyl side, 3 side chain; linkers in the order of their positions; H or OH if unused. Positions of bridges follow the written chain, without caps; N, C: chain ends. Non-standard residues stand in square brackets, D forms with d. Residues, ends and D or L forms follow the SMILES beside them. *: point of attachment. X1 = CC[C@H](C)[C@@H](N[*:1])[C@@H](O)CC(=O)O[C@H](C(=O)[C@H](C)C(=O)[*:2])C(C)C; NMeY = CN[C@@H](Cc1ccc(O)cc1)C(=O)O; dNMeL = CN[C@H](CC(C)C)C(=O)O; Pyruvoyl = CC(=O)C(=O)*

Assays:
MDA-MB231 and MCF-7 = settings: treated breast cancer cells; cited from earlier work
[1] = tested on: Non-small cell lung cancer, breast cancer and melanoma cell lines; settings: continuous exposure; cited from earlier work
B16 melanoma = settings: mice; cited from earlier work
gastric tumours = settings: 1.25 mg/kg; cited from earlier work
human bladder cancer = test: bladder cancer animal models; type: in vivo
[2] = tested on: gene (FLT1) encoding the receptor of the Vascular Endothelial Growth Factor (VEGF); test: inhibition of gene expression; type: cell-based
MDA-MB231 = settings: aplidine 50 nmol/L; cited from earlier work
[3] = Phase I study, 24h continuous infusion every other week: toxicities; type: in vivo, human; settings: Pat #27, medullary thyroid carcinoma, 6000 µg/m^2 weekly
prostate tumour = settings: 1.25 mg/kg, prostate tumour growth inhibition; cited from earlier work
[4] = Phase I study, 24h continuous infusion every other week: pharmacokinetics; type: in vivo, human; settings: for half-life: human, iv
Method: (§1) A phase I and pharmacokinetic study of aplidine, given as a 24h continuous infusion every other week in patients with solid tumours and non-Hodgkin lymphoma

MCF-7 = settings: aplidine 50 nmol/L; cited from earlier work
lewis lung carcinomas = settings: cited from earlier work
CT-2 = CT-2 epithelial-like cell line; cited from earlier work
[5] = Phase I study, 24h continuous infusion every other week: toxicities; type: in vivo, human
Method: as §1
Characterisation of Muscular Toxicity (DLT)

VEGF protein = test: VEGF production by tumour cells; type: cell-based
CT-1 = CT-1 epithelial-like cell line; cited from earlier work
P388 leukaemia = settings: mice; cited from earlier work
human cancer xenografts = settings: cited from earlier work
[6] = stability of aplidine solution and lyophilised formulation; type: physicochemical; settings: solubilised aplidine, heat and light stress testing conditions
Method: In a currently preferred embodiment freeze-drying was performed from a 500 mg/mL solution of aplidine in 40% (v/v) tert-butanol in Water for Injection (WfI) containing 25 mg/mL D-mannitol as bulking agent.

[7] = Phase I studies: features of aplidine myotoxicity; type: in vivo, human
Text: The presentation is variable among patients. Mild cases have muscle cramps (at doses from 3200 mcg/m2 every 2 weeks), while in more severe cases the symptoms are associated to reversible increases in creatin-kinase (CK) reaching up to grade 3. In the dose-limiting cases there is weakness of proximal distribution. The effect has a delayed onset, appearing after 3 to 8 (median 4) infusions of the drug.

ornithine decarboxylase = target: T1, ornithine decarboxylase (Homo sapiens, UniProt P11926); settings: all three cell lines CT-1, CT-2, HT-29; cited from earlier work
T1 construct: endogenous in cells; host or cells: CT-1, CT-2 and HT-29 colon cell lines

[8] = tested on: solid tumours and non-Hodgkin lymphoma; test: Phase I study, 24h continuous infusion every other week: antitumour activity; type: in vivo, human; settings: patients
Method: as §1

cell cycle = settings: flow cytometric analysis; cited from earlier work
[9] = L-carnitine as myoprotector in aplidine patients (study APL-A-003-98); type: in vivo, human
Method: More generally, the invention involves the use of a muscle protector in conjunction with aplidine therapy. We have found in particular that carnitine is beneficial in treating myotoxicity that is associated with chemotherapy with the experimental drug aplidine. […] When L-carnitine 4.5 g/day was added to the therapy (at doses of 1.5 g three times daily), or […] (at doses of […] 3 times daily) patients were able to tolerate doses of aplidine up to 6000 mcg/m 2 every second week. […] Therefore, muscle protectors such as L-carnitine is a useful myoprotector for patients being treated with aplidine or an aplidine analogue.
L-carnitine at a dose of 1.5 grams 3 times per day or 0.033 g/kg 3 times per day was started in all patients of study APL-A-003-98.
The dose may be decreased to manage the above effects.

[10] = Phase I dosing regimes with and without carnitine (MTD, DLT, RD); type: in vivo, human; design: recommended dose, RD: unit not given here
Text: The Recommended Dose (RD) is the highest dose which can be safely administered to a patient producing tolerable, manageable and reversibly toxicity according to the Common Toxicity Criteria established by the National Cancer Institute, (USA) with no more than 2 out of 6 patients presenting any dose limiting toxicities (DLT). Guidelines for cancer therapy frequently call for administration of chemotherapeutic agents at the highest safe dose at which toxicity is manageable in order to achieve maximum efficacy (DeVita, V.T. Jr., Hellman, S. and Rosenberg, S.A., Cancer: Principles and Practice of Oncology, 3rd ed., 1989, Lipincott, Philadelphia).
DLTs for aplidine using this method of treatment were determined in clinical studies. These studies established a recommended dose level for differing kinds of dosing protocols.

HT-29 = HT-29 human colon cancer cell line; cited from earlier work
[11] = tested on: panel of 25 human tumor cell lines; test: tumor protection by L-carnitine, cell line panel; type: cell-based; settings: initial results
Method: The possibility of tumor protection by L-carnitine was evaluated using a panel of 25 human tumor cell lines.

[12] = 200 mcg/m^2/2wks, patients affected of 3
[13] = 400 mcg/m^2/2wks, patients affected of 3
[14] = 800 mcg/m^2/2wks, patients affected of 3
[15] = 1600 mcg/m^2/2wks, patients affected of 6
[16] = 3200 mcg/m^2/2wks, patients affected of 3
[17] = 4000 mcg/m^2/2wks, patients affected of 3
[18] = 5000 mcg/m^2/2wks, patients affected of 3
[19] = 6000 mcg/m^2/2wks, patients affected of 12
[20] = 7000 mcg/m^2/2wks, patients affected of 7
[21] = 24 hour infusion every 2 weeks, L-carnitine daily
[22] = weekly 1 hour infusion for 3 weeks, 1 week rest
[23] = weekly 24 hour infusion for 3 weeks, 1 week rest
[24] = L-carnitine at the doses used in this study

T1 sequence (P11926 whole entry): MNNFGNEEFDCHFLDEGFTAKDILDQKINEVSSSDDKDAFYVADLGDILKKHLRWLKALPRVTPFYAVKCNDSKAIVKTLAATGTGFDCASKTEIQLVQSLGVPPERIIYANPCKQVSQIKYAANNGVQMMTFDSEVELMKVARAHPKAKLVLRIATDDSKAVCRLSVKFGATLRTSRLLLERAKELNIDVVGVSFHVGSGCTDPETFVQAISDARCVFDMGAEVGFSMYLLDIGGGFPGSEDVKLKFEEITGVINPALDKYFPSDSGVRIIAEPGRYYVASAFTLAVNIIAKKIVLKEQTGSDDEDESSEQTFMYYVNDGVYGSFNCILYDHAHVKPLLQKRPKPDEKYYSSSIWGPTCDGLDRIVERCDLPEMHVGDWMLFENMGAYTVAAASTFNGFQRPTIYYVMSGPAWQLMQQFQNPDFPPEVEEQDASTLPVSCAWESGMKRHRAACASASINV

CC[C@H](C)[C@H]1NC(=O)[C@@H](NC(=O)[C@@H](CC(C)C)N(C)C(=O)[C@@H]2CCCN2C(=O)C(C)=O)[C@@H](C)OC(=O)[C@H](Cc2ccc(OC)cc2)N(C)C(=O)[C@@H]2CCCN2C(=O)[C@H](CC(C)C)NC(=O)[C@@H](C)C(=O)[C@H](C(C)C)OC(=O)C[C@@H]1O [aplidine, Dehydrodidemnin B] (Pyruvoyl-P[dNMeL]T[X1]LP[NMeY](Me); ester 3-C)
spermidine and spermine (MDA-MB231 and MCF-7): significant increase | concentrations at which cell lines were sensitive [1]: >= 0.001 micromol/L | activity against implanted tumour (B16 melanoma): active | optimal dose (B16 melanoma): 160 micrograms/kg | T/C (gastric tumours): 14% | activity on human bladder cancer (human bladder cancer): exceedingly high activity | expression of the gene (FLT1) [2]: inhibits expression | inhibited the growth (MDA-MB231): 17% | muscular toxicity (DLT) [3]: symptomatic G3 CPK with G2 muscular pain | T/C (prostate tumour): 25% | half-life ([4]; in vivo, the 3 patients with clear muscular toxicity, read-out: t ½): > 44 h | half-life ([4]; plasma, preliminary compartmental analysis, 24 h infusion, read-out: median half-life, longer terminal phase (converted)): 25.8 h | half-life ([4]; plasma, preliminary compartmental analysis, first-order 2-compartment model, read-out: median half-life, rapid initial phase (converted)): 0.64 h | half-life ([4]; plasma, quartiles 15.7-35.0, read-out: t ½, median (converted)): 23.8 h | PK profile ([4]; within the constraints of the low sample size): dose-linear | inhibited the growth (MCF-7): 47% | activity in SC implanted lewis lung carcinomas (lewis lung carcinomas): active | cytotoxic activity (CT-2): dose-dependent cytotoxic activity | muscle biopsies, E/M ([5]; 2 patients): partial disappearance of thick filaments of myosin | CPK elevations ([5]; 3 patients (5000 and 6000 µg/m^2), CPK MM increase): minor elevations of CPKs (≥G2) | Nausea/vomiting G2 [5, 12]: 2 | Transaminitis G2 [5, 12]: 1 | Asthenia G2 [5, 13]: 2 | Hypertension G2 [5, 13]: 1 | Nausea/vomiting G2 [5, 13]: 1 | Flushing G1 [5, 14]: 1 | Muscle cramps G1+G2 [5, 14]: 2 | Asthenia G2 [5, 15]: 2 | Asthenia G3 [5, 15]: 1 | Muscle cramps G1+G2 [5, 15]: 1 | Nausea/vomiting G2 [5, 15]: 4 | Transaminitis G3 [5, 15]: (1) | Asthenia G2 [5, 16]: 1 | Flushing G1 [5, 16]: 1 | Muscle cramps G1+G2 [5, 16]: 2 | Muscle pain G2 [5, 16]: (1) | Nausea/vomiting G3 [5, 16]: (1) | Asthenia G2 [5, 17]: 1 | Flushing G1 [5, 17]: 1 | Muscle cramps G1+G2 [5, 17]: 2 | Muscle pain G1 [5, 17]: 2 | Nausea/vomiting G2 [5, 17]: 2 | Pain central catheter G2 [5, 17]: 2 | Asthenia G3 [5, 18]: (1) | CPK elevation G3 [5, 18]: (1) [1] | CPK elevation G4 [5, 18]: (1) [1] | Muscle cramps G1+G2 [5, 18]: 2 | Muscle pain G1 [5, 18]: 1 | Muscle weakness G1 [5, 18]: 1 | Nausea/vomiting G2 [5, 18]: 1 | Transaminitis G2 [5, 18]: 1 | dose limiting toxicity (drug induced muscular changes) ([5]; 6000 mcg/m^2): 1/9 | Asthenia G2 [5, 19]: 6 | CPK elevation G2 [5, 19]: 1(1) | CPK elevation G3 [5, 19]: 1(1) | Muscle cramps G1+G2 [5, 19]: 1 | Muscle pain G1 [5, 19]: 1 | Muscle pain G2 [5, 19]: 2 | Muscle weakness G1 [5, 19]: 1(1) | Muscle weakness G2 [5, 19]: 1(1) | Nausea/vomiting G2 [5, 19]: 2 | Asthenia G2 [5, 20]: 2 | CPK elevation G2 [5, 20]: 1 | Flushing G1 [5, 20]: 1 | Muscle pain G1 [5, 20]: 1 | Nausea/vomiting G2 [5, 20]: 1 | Neutrophenia G4 [5, 20]: 1 | Transaminitis G2 [5, 20]: 1 | toxicity recovered after treatment discontinuation ([5]; Pat #27, 6000 µg/m^2): ≤ 3 weeks | production of the VEGF protein (VEGF protein): severely inhibit production | cytotoxic activity (CT-1): dose-dependent cytotoxic activity | activity against implanted tumour (P388 leukaemia): active | optimal dose (P388 leukaemia): 160 micrograms/kg | treated/control (T/C) tumour ratio (human cancer xenografts; 2.1 mg/kg, near complete remissions in some animals): 9% | maximum tolerated dose (human cancer xenografts; mice bearing human cancer xenografts): 2.1 mg/kg | degradation [6]: substantial degradation | delayed onset of myotoxicity, infusions of the drug, median ([7]; median): 4 infusions | reversible increases in creatin-kinase (CK) ([7]; more severe cases): ≤ 3 grade | light microscopy of muscle ([7]; most biopsied patients): just minimal necrosis or no changes at all | ornithine decarboxylase activity (ornithine decarboxylase): decreased | antitumour activity [8]: noted in patients with NHL and renal carcinoma | cell cycle perturbations (cell cycle): did not induce any apparent cell cycle periubations | doses of aplidine patients were able to tolerate ([9]; every second week, 24-hour infusion, with L-carnitine 4.5 g/day or 0.1mg/kg): up to 6000 mcg/m 2 | dose-limiting toxicity ([10]; 1-hour infusion for 5 consecutive days every 3 weeks): Muscular/long lasting emesis | dose-limiting toxicity ([10]; 24 hour infusion every 2 weeks): Muscular | recommended dose, RD ([10]; 24 hour infusion every 2 weeks): 5000 | dose-limiting toxicity [10, 21]: Flu-like syndrome | recommended dose, RD [10, 21]: 7000 | dose-limiting toxicity [10, 22]: Muscular | recommended dose, RD [10, 22]: 3250 | dose-limiting toxicity [10, 23]: Muscular/ hepatic | recommended dose, RD [10, 23]: 3750 | RD ([10]; with L-carnitine 0.1 g/kg /day, for Phase II studies): 7 mg/m^2 | cytotoxic activity (HT-29): dose-dependent cytotoxic activity

C[N+](C)(C)C[C@H](O)CC(=O)[O-] [L-carnitine]
effect on the antitumor activity of aplidine [11]: lack of effect | outcome in patients with prior skeletal muscle toxicity ([9]; 4 patients continuing aplidine, L-carnitine 1.5 grams 3 times per day or 0.033 g/kg 3 times per day): no skeletal muscle symptoms and just transient grade 1 CK increases | outcome in patients on L-carnitine prophylaxis from the beginning ([9]; 11 patients): just an asymptomatic G1 increase in CK | only toxicity reported [9, 24]: grade 1 abdominal discornfort and diarrhea | tolerability [9, 24]: well tolerated | increase of aplidine MTD ([9]; L-carnitine prophylaxis, 24 h every other week infusion study): 33% | outcome after L-carnitine at reduced doses ([9]; two patients, grade 3 with weakness and grade 1 with asthenia): symptomatic increases in CK
